Reference: ChEMBL document CHEMBL4393690, “Acylated sulfonamide adenosines as potent inhibitors of the adenylate-forming enzyme superfamily” (Eur J Med Chem, 2019)

Legend:
Isoleucine--tRNA ligase = Isoleucine--tRNA ligase (Escherichia coli K-12, UniProt P00956); experiment: (§1) Inhibition of recombinant Escherichia coli BL21(DE3) isoleucyl-tRNA synthetase expressed in Escherichia coli Rosetta 2 (DE3) assessed as reduction in tRNA aminoacylation preincubated for 10 mins in presence of [14C]-isoleucin and tRNA followed by ATP addition and measured after 6 mins by scintillation counting method
[1] = target: Serine--tRNA ligase (Escherichia coli (strain K12)) (UniProt P0A8L1); experiment: as §1, with “seryl-tRNA” for “isoleucyl-tRNA”, “aminoacylation at 2 uM” for “aminoacylation”
Serine--tRNA ligase (Escherichia coli (strain K12)), sequence (P0A8L1 whole entry, looked up): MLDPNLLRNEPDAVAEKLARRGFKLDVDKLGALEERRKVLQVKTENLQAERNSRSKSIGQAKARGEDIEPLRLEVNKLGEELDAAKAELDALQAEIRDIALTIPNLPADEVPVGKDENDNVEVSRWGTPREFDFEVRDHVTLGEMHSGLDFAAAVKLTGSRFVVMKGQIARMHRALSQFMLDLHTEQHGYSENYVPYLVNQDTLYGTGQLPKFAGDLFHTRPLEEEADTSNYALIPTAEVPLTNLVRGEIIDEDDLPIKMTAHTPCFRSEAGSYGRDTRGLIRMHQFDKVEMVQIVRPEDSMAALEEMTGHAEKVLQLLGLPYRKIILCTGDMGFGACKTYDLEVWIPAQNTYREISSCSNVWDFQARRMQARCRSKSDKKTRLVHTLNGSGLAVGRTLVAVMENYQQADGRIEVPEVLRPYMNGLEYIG

Isoleucine--tRNA ligase, sequence (P00956 whole entry): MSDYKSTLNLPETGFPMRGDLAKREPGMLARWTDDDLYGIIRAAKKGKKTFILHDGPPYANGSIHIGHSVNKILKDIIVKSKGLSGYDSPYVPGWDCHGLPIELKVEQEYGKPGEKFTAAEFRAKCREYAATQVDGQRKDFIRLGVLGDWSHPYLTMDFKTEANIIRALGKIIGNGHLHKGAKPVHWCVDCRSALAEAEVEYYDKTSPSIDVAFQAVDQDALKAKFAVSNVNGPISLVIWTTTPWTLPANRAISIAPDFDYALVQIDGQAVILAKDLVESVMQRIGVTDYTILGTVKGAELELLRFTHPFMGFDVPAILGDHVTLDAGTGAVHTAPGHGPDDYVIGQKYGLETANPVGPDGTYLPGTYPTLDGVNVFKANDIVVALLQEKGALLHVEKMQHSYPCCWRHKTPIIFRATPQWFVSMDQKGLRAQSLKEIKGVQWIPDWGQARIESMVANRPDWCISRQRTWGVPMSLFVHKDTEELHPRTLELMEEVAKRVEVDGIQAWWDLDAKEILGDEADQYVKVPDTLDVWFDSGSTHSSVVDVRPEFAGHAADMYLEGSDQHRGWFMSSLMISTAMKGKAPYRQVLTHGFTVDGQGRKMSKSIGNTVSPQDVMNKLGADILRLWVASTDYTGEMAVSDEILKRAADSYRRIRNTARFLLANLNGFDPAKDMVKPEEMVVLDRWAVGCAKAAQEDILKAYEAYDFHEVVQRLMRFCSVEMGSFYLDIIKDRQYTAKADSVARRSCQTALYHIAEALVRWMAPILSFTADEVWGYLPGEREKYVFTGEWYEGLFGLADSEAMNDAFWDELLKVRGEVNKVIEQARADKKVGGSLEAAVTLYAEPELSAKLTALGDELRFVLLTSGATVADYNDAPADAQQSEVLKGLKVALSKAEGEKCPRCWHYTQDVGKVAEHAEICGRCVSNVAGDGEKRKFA

| Structure (SMILES) | IC50 (Isoleucine--tRNA ligase) [nM] | Ki (Isoleucine--tRNA ligase; read-out: Ki(app)) [nM] | inhibition [1] [%] |
| --- | --- | --- | --- |
| CC[C@H](C)[C@H](N)C(=O)NS(=O)(=O)CC[C@H]1O[C@@H](n2cnc3c(N)ncnc32)[C@H](O)[C@@H]1O | 6.8 | 1.2 |  |
| Nc1ncnc2c1ncn2[C@@H]1O[C@H](CCS(=O)(=O)NC(=O)[C@@H](N)CO)[C@@H](O)[C@H]1O |  |  | 30 |
